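Results reflect a 48-hour exposure of cells in 96-well plates to compound at five concentrations. GI50 is the concentration that inhibits growth by half. TGI: total growth inhibition.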
What was measured:
Assay in all cases: NCI tumour cell line growth inhibition, 48 h
COLO 205 colon = test system: COLO 205 colon
SF-295 CNS = test system: SF-295 CNS
SK-OV-3 ovarian = test system: SK-OV-3 ovarian
T-47D breast = test system: T-47D breast
HL-60(TB) leukemia = test system: HL-60(TB) leukemia
DU-145 prostate = test system: DU-145 prostate
HS 578T breast = test system: HS 578T breast
SN12C renal = test system: SN12C renal
PC-3 prostate = test system: PC-3 prostate
NCI-H226 lung = test system: NCI-H226 lung
HCC-2998 colon = test system: HCC-2998 colon
UACC-257 melanoma = test system: UACC-257 melanoma
NCI-H460 lung = test system: NCI-H460 lung
SF-539 CNS = test system: SF-539 CNS
MOLT-4 leukemia = test system: MOLT-4 leukemia
CCRF-CEM leukemia = test system: CCRF-CEM leukemia
KM12 colon = test system: KM12 colon
CAKI-1 renal = test system: CAKI-1 renal
OVCAR-3 ovarian = test system: OVCAR-3 ovarian
M14 melanoma = test system: M14 melanoma
K-562 leukemia = test system: K-562 leukemia
OVCAR-4 ovarian = test system: OVCAR-4 ovarian
UO-31 renal = test system: UO-31 renal
SF-268 CNS = test system: SF-268 CNS
HOP-92 NSCLC = test system: HOP-92 NSCLC
IGROV1 ovarian = test system: IGROV1 ovarian
SW-620 colon = test system: SW-620 colon
SNB-75 CNS = test system: SNB-75 CNS
RXF 393 renal = test system: RXF 393 renal
NCI/ADR-RES ovarian = test system: NCI/ADR-RES ovarian
U251 CNS = test system: U251 CNS
HT29 colon = test system: HT29 colon
A549 NSCLC = test system: A549 NSCLC
SNB-19 CNS = test system: SNB-19 CNS
HCT-15 colon = test system: HCT-15 colon
ACHN renal = test system: ACHN renal
786-0 renal = test system: 786-0 renal
MCF7 breast = test system: MCF7 breast
TK-10 renal = test system: TK-10 renal
A498 renal = test system: A498 renal
OVCAR-5 ovarian = test system: OVCAR-5 ovarian
MDA-MB-231 breast = test system: MDA-MB-231 breast
HOP-62 NSCLC = test system: HOP-62 NSCLC
SK-MEL-2 melanoma = test system: SK-MEL-2 melanoma
EKVX NSCLC = test system: EKVX NSCLC
NCI-H23 lung = test system: NCI-H23 lung
MALME-3M melanoma = test system: MALME-3M melanoma
SK-MEL-28 melanoma = test system: SK-MEL-28 melanoma
UACC-62 melanoma = test system: UACC-62 melanoma
MDA-MB-435 = test system: MDA-MB-435
SK-MEL-5 melanoma = test system: SK-MEL-5 melanoma
LOX IMVI melanoma = test system: LOX IMVI melanoma
BT-549 breast = test system: BT-549 breast
OVCAR-8 ovarian = test system: OVCAR-8 ovarian
SR leukemia = test system: SR leukemia
NCI-H522 lung = test system: NCI-H522 lung
RPMI-8226 leukemia = test system: RPMI-8226 leukemia
HCT-116 colon = test system: HCT-116 colon

Compound `COc1cc2c(cc1O)N=C[C@@H]1C[C@@H](F)CN1C2=O` has a GI50 (COLO 205 colon) of 3.18 µM, a TGI (COLO 205 colon) of 11.5 µM and a GI50 (SF-295 CNS) of 712 nM. The TGI (SF-295 CNS) was 4.33 µM, the GI50 (SK-OV-3 ovarian) was 5.91 µM and the TGI (SK-OV-3 ovarian) was 18.3 µM. The GI50 (T-47D breast) was 5.29 µM, the TGI (T-47D breast) was 32.2 µM and the GI50 (HL-60(TB) leukemia) was 588 nM. For the same compound, the TGI (HL-60(TB) leukemia) was 10.1 µM, the GI50 (DU-145 prostate) was 964 nM and the TGI (DU-145 prostate) was 8.86 µM. The GI50 (HS 578T breast) was 96.4 nM, the TGI (HS 578T breast) was 2130 nM and the GI50 (SN12C renal) was 2520 nM. It also gave a TGI (SN12C renal) of 8.71 µM, a GI50 (PC-3 prostate) of 1830 nM and a TGI (PC-3 prostate) of 9.18 µM. For the same compound, the GI50 (NCI-H226 lung) was 2370 nM, the TGI (NCI-H226 lung) was 5.39 µM and the GI50 (HCC-2998 colon) was 1980 nM. For the same compound, the TGI (HCC-2998 colon) was 5.66 µM, the GI50 (UACC-257 melanoma) was 17.5 µM and the TGI (UACC-257 melanoma) was 34.4 µM. For the same compound, the GI50 (NCI-H460 lung) was 1790 nM, the TGI (NCI-H460 lung) was 4.61 µM and the GI50 (SF-539 CNS) was 1190 nM. It also gave a TGI (SF-539 CNS) of 4.32 µM, a GI50 (MOLT-4 leukemia) of 283 nM and a TGI (MOLT-4 leukemia) of 1230 nM. The GI50 (CCRF-CEM leukemia) was 304 nM, the TGI (CCRF-CEM leukemia) was 3.3 µM and the GI50 (KM12 colon) was 1810 nM. The TGI (KM12 colon) was 5.04 µM, the GI50 (CAKI-1 renal) was 281 nM and the TGI (CAKI-1 renal) was 1500 nM. It also gave a TGI (OVCAR-3 ovarian) of 808 nM, a GI50 (M14 melanoma) of 1610 nM and a TGI (M14 melanoma) of 3.73 µM. It also gave a GI50 (K-562 leukemia) of 367 nM, a TGI (K-562 leukemia) of 4.81 µM and a GI50 (OVCAR-4 ovarian) of 3.93 µM. It also gave a TGI (OVCAR-4 ovarian) of 14.5 µM, a GI50 (UO-31 renal) of 1140 nM and a TGI (UO-31 renal) of 9.62 µM. The GI50 (SF-268 CNS) was 449 nM, the TGI (SF-268 CNS) was 9.97 µM and the GI50 (HOP-92 NSCLC) was 269 nM. The TGI (HOP-92 NSCLC) was 719 nM, the GI50 (IGROV1 ovarian) was 1650 nM and the TGI (IGROV1 ovarian) was 8.97 µM. The GI50 (SW-620 colon) was 1160 nM, the TGI (SW-620 colon) was 4.9 µM and the GI50 (SNB-75 CNS) was 15.5 µM. It also gave a TGI (SNB-75 CNS) of 52.4 µM, a GI50 (RXF 393 renal) of 898 nM and a TGI (RXF 393 renal) of 2160 nM. The GI50 (NCI/ADR-RES ovarian) was 1870 nM, the TGI (NCI/ADR-RES ovarian) was 6.15 µM and the GI50 (U251 CNS) was 1830 nM. For the same compound, the TGI (U251 CNS) was 10.9 µM, the GI50 (HT29 colon) was 4.1 µM and the TGI (HT29 colon) was greater than 44 µM. For the same compound, the GI50 (A549 NSCLC) was 7.97 µM, the TGI (A549 NSCLC) was greater than 19.7 µM and the GI50 (SNB-19 CNS) was 2790 nM. The TGI (SNB-19 CNS) was 8.66 µM, the GI50 (HCT-15 colon) was 2890 nM and the TGI (HCT-15 colon) was 9.33 µM. The GI50 (ACHN renal) was 2580 nM, the TGI (ACHN renal) was 6.15 µM and the GI50 (786-0 renal) was 2050 nM. The TGI (786-0 renal) was 12.3 µM, the GI50 (MCF7 breast) was 608 nM and the TGI (MCF7 breast) was 9.06 µM. The GI50 (TK-10 renal) was 1900 nM, the TGI (TK-10 renal) was 13 µM and the GI50 (A498 renal) was 938 nM. For the same compound, the TGI (A498 renal) was 2890 nM, the GI50 (OVCAR-5 ovarian) was 965 nM and the TGI (OVCAR-5 ovarian) was 6.66 µM. It also gave a GI50 (MDA-MB-231 breast) of 1840 nM, a TGI (MDA-MB-231 breast) of 6.21 µM and a GI50 (HOP-62 NSCLC) of 2550 nM. It also gave a TGI (HOP-62 NSCLC) of 9.65 µM, a GI50 (SK-MEL-2 melanoma) of 1160 nM and a GI50 (EKVX NSCLC) of 2850 nM. For the same compound, the TGI (EKVX NSCLC) was 9.8 µM, the GI50 (NCI-H23 lung) was 1820 nM and the TGI (NCI-H23 lung) was 4.44 µM. The GI50 (MALME-3M melanoma) was 789 nM, the TGI (MALME-3M melanoma) was 2880 nM and the GI50 (SK-MEL-28 melanoma) was 2900 nM. It also gave a TGI (SK-MEL-28 melanoma) of 9.39 µM, a GI50 (UACC-62 melanoma) of 1810 nM and a TGI (UACC-62 melanoma) of 3.46 µM. For the same compound, the GI50 (MDA-MB-435) was 1550 nM, the TGI (MDA-MB-435) was 3.51 µM and the GI50 (SK-MEL-5 melanoma) was 817 nM. The TGI (SK-MEL-5 melanoma) was 2320 nM, the GI50 (LOX IMVI melanoma) was 2030 nM and the TGI (LOX IMVI melanoma) was 7.21 µM. For the same compound, the GI50 (BT-549 breast) was 869 nM, the TGI (BT-549 breast) was 5.83 µM and the GI50 (OVCAR-8 ovarian) was 6.37 µM. The TGI (OVCAR-8 ovarian) was 13.9 µM, the GI50 (SR leukemia) was 173 nM and the TGI (SR leukemia) was 602 nM. The GI50 (NCI-H522 lung) was 289 nM, the TGI (NCI-H522 lung) was 970 nM and the GI50 (RPMI-8226 leukemia) was 216 nM. The TGI (RPMI-8226 leukemia) was 552 nM, the GI50 (HCT-116 colon) was 1830 nM and the TGI (HCT-116 colon) was 5.94 µM.
